These results are taken from patent publication US6855693B2, “Peptides for activation and inhibition of δPKC” (The Board of Trustees of the Leland Stanford Junior …, priority 2001, dated 2005).

No end group written: not given here.

Assay [1] has as its system isolated adult rat cardiac myocytes. The experiment in a line: Simulated ischemia in isolated cardiac myocytes, cell damage by osmotic fragility test (trypan blue uptake). It is filed as cell-based. The protocol: In another study, the δPKC activator peptide, ψδRACK, and the δPKC inhibitor peptide, δV1-1 were administered to isolated rat cardiac myocytes to determine the role of δPKC in protection from ischemia. As described in Example 2, the Antennapedia carrier-peptide conjugate of δV1-1 and/or ψδRACK was introduced into isolated adult rat cardiac myocytes ten minutes prior to prolonged ischemia. Cell damage was assessed using an osmotic fragility test by measuring uptake of trypan blue.
Adult male Wistar rat cardiomyocytes were prepared on a Langendorff apparatus (van der Heide, R. S. et al.) by collagenase treatment (Armstrong, S. et al.). The cells were treated with δV1-1 at concentrations of 10 nM, 100 nM, 500 nM, and 1 μM in the presence or absence of 1 μM ψδRACK. βPKC-selective activator was used as a control.
For […] ischemia, adult myocytes treated in microcentrifuge tubes with δV1-1 and/or ψδRACK peptides conjugated to the carrier were washed twice with degassed glucose-free incubation buffer and pelleted. On top of a minimal amount of buffer, the cell pellets were overlaid with either a micro-balloon (Sig Manufacturing, Montezuma, Iowa) or with degassed buffer saturated with nitrogen, and sealed with an airtight top. Tubes were then incubated at 37 C for either 180 minutes or 90 minutes.
Cell damage was assessed by an osmotic fragility test by measuring the uptake of trypan blue added in a hypotonic (85 mosM) solution. Similar results were also obtained by using a live-dead kit (Molecular Probes) or measuring the release of […] to the medium using a kit (Sigma) as previously described (Chen, et al., 1999; Gray et al., 1997; Mackay et al., 1999).

A further assay has as its target T1, αPKC (Rattus norvegicus, UniProt P05696).
T1 construct: blots probed with anti-δPKC, anti-αPKC and anti-εPKC antibodies; endogenous in cells; host or cells: primary neonatal rat cardiac myocytes
As to the kind of experiment: Translocation of αPKC in primary cardiac myocytes (Western blot). It is filed as cell-based. To be noted: data not shown. How it is done:
As described in Example 1, the δV1-1 and ψδRACK peptides were analyzed to determine whether the peptides had activity, and if so, whether the activity was as an agonist or an antagonist of δPKC. As will be shown, δV1-1, δV1-2 and δV1-5 are δPKC antagonists and ψδRACK is a δPKC agonist. In these studies, the δV1-1 and ψδRACK peptides were modified with a carrier peptide by cross-linking via an N-terminal Cys-Cys bond to the Drosophila Antennapedia homeodomain (SEQ ID NO:8; Théodore, L., et al.; Johnson, J. A. et al., 1996b). […] Translocation of δPKC isozyme was assessed by Western blot analysis cystosolic and particulate fractions of treated cells. Subcellular localization of δPKC isozyme was assessed by immunofluorescence by probing the blot with […], and anti-εPKC antibodies. Translocation was expressed as the amount of isozyme in the particulate fraction over the amount of isozyme in non-treated cells. […]
Translocation of δPKC isozyme was assessed by using δPKC isozyme-specific antibodies in Western blot analysis (Santa Cruz Biotechnology). […] Subcellular localization of dPKC isozymes was assessed by chemiluminescence of blots probed with anti-δPKC, anti-αPKC and anti-εPKC antibodies. […] Changes in translocation of δPKC isozyme were also determined by immunofluoresence study of treated and fixed cells (Gray et al., 1997). […]
On the technique in general: In western blotting, separated proteins are transferred to a membrane and probed.

The test system of a further assay is whole rat hearts. As to the kind of experiment: Ex vivo Langendorff perfused whole hearts, peptide before 30 min global ischemia, creatine phosphokinase release. The source says: In another study performed in support of the invention, the δPKC selective inhibitor peptide, δV1-1, or the activator peptide, ψδRACK, were delivered to whole hearts ex vivo to determine if the peptides have activity when introduced extracellulary to a whole organ. As described in Example 3, δV1-1 and ψδRACK peptides were conjugated to a carrier peptide, a Tat-derived peptide. The peptides were delivered into Langendorff perfused rat hearts prior to induction of an ischemic period. After perfusion with the peptides, global ischemia was effected for 30 minutes. After the 30 minute ischemic period, the amount of creatine phosphokinase (CPK) released was monitored during a 30 minute reperfusion period.
Adult, male rats were anesthetized with i.p. avertin, and their hearts were rapidly removed and cannulated via the aorta for perfusion as described in the art (Colbert, M. C. et al.) using Langendorff set-up. Care was taken to have the hearts perfused within 90 seconds of removal. The hearts were perfused with oxygenated Krebs-Henseleit solution comprised of, in […], NaCl 120; KCl 5.8; NaHCO3 25; NaH2O4 1.2; MgSO4 1.2; CaCl2 1.0; and dextrose 10, pH 7.4 at 37 C.
After a 10-20 minute equilibration period, the hearts were perfused with δV1-1 peptide (SEQ ID NO:4) or with ψδRACK peptide (SEQ ID NO:6), prepared as described in Example 1 but conjugated to a Tat-derived peptide (Tat 47-57, SEQ ID NO:9), for 20 minutes. Perfusion was maintained at a constant flow of 10 mL/min with Krebs-Hanseleit solution containing 0.5 μM of the appropriate peptide. The Langendorff method employed used retrograde flow from the […] and into the coronary arteries, bypassing the pulmonary arteries.
To induce global ischemia, flow was interrupted for 30 minutes. After the ischemic event, the hearts were re-perfused for 30-60 minutes. During reperfusion, ischemia-induced cell damage was determined by measuring the activity of creatine phosphokinase (CPK) (absorbance at 520 nm) in the perfusate using a Sigma kit. […]

[2] abbreviates: 0.5 μM Tat-conjugated peptide for 20 minutes before 30 minute global ischemia.

In the case of “MRAAEDPM (also: conjugated to Antennapedia or Tat carrier; listed as Rattus norvegicus) [ψδRACK, tested conjugated to Antennapedia or Tat carrier]”, the “cardiac myocyte damage after ischemic insult” value in assay [1] (1 μM ψδRACK, 180 minute ischemia) is listed as “slight increase”. Moreover, in assay [1] (co-incubation with δV1-1, 180 minute ischemia, ψδRACK 1 μM), the “effect of co-incubation on the δV1-1 protection from ischemia-induced damage” value is “prevented”. Moreover, the “ψδRACK-induced increase in cell damage” value in assay [1] (ischemia shortened to 90 minutes) was “became significant”. Moreover, the “translocation of αPKC” value with αPKC is on record as “without affecting”. In the assay with whole rat hearts (setting [2]), the “enhancement of cardiac damage induced by ischemia (CPK release)” value is reported as “about 30%”.
For the sequence “SFNSYELGSL (also: conjugated to Antennapedia or Tat carrier; listed as Rattus norvegicus) [δV1-1, tested conjugated to Antennapedia or Tat carrier]”, the “protection from ischemia-induced cell damage” value in assay [1] (10 nM, 100 nM, 500 nM, 1 μM, given 10 minutes prior to 180 minute ischemia) is reported as “concentration-dependent level of protection”. Also, the “effect of co-treatment on the ψδRACK-induced increase in cell damage” value in assay [1] (90 minute ischemia, co-treatment with ψδRACK) is recorded as “reversed”. Besides, the “translocation of αPKC” value in the assay with αPKC is “did not inhibit”. Further, the “release of creatine kinase” value with whole rat hearts (0.5 μM Tat-conjugated peptide before 30 minute global ischemia, reperfusion period) is on record as “decreased”. In addition, the “protection against ischemic damage in an intact heart” value with whole rat hearts (setting [2]) is on record as “greater than 50%”.
